How the values were obtained:
Colon Cancer cell lines = experiment: NCI DTP human tumor cell line screen, colon cancer panel; assay type: cell-based; settings: Colon Cancer (7 cell lines)
Description: (§1) The United States National Cancer Institute (NCI) provides a developmental therapeutics program (DTP) (http://dtp.nci.nih.gov/branches/btb/ivelsp.html) to screen submitted substances in support of cancer drug discovery. The In Vitro Cell Line Screening Project (IVCLSP) is a dedicated service providing direct support to the DTP anticancer drug discovery program and is designed to screen up to 3,000 compounds per year for potential anticancer activity. The operation of this screen utilizes 60 different human tumor cell lines, representing leukemia, melanoma and cancers of the lung, colon, brain, ovary, breast, prostate, and kidney. The aim is to prioritize for farther evaluation, synthetic compounds or natural product samples showing selective growth inhibition or cell killing of particular tumor cell lines. This screen is unique in that the complexity of a 60 cell line dose response produced by a given compound results in a biological response pattern which can be utilized in pattern recognition algorithms (COMPARE program. See: http://dtp.nci.nih.gov/docs/compare/compare.html). Using these algorithms, it is possible to assign a putative mechanism of action to a test compound, or to determine that the response pattern is unique and not similar to that of any of the standard prototype compounds included in the NCI database. […]

Breast Cancer cell lines = experiment: NCI DTP human tumor cell line screen, breast cancer panel; assay type: cell-based; settings: Breast Cancer (6 cell lines)
Description: as §1

Renal Cancer cell lines = experiment: NCI DTP human tumor cell line screen, renal cancer panel; assay type: cell-based; settings: Renal Cancer (6 cell lines)
Description: as §1

Melanoma cell lines = experiment: NCI DTP human tumor cell line screen, melanoma panel; assay type: cell-based; settings: Melanoma (8 cell lines)
Description: as §1

CNS cell lines = experiment: NCI DTP human tumor cell line screen, CNS panel; assay type: cell-based; settings: CNS (6 cell lines)
Description: as §1

[1] = Caco-2 monolayer bidirectional permeability; assay type: in vitro ADME, human; settings: human
Procedure: (§2) Permeability studies were conducted by an outside contractor on behalf of the assignee of the present invention and application to determine the permeability of Compound A through Caco-2 monolayers. An important factor of oral bioavailability is the ability of e compound to be absorbed in the small intestine. Measurement of drug apparent permeability (Papp) through cell monolayers is well correlated with human intestinal absorption, and several mammalian cell lines, including Caco-2, LLC-PK1 and MDCK, are appropriate for this measurement (Artursson, P. et al., Correlation between oral drug absorption in humans and apparent drug permeability coefficients in human intestinal epithelial (Caco-2) cells. Biochem Biophys Res Comm 175:880-885 (1991); Stewart. B. H., et al., Comparison of intestinal permeabilities in multiple in vitro and in situ models: relationship to absorption in humans. Pharm Res 12:693 (1995)). P-Glycoprotein (P-gp, encoded by MDR1) is a member of the ABC transporter super family and is expressed in the human intestine, liver and other tissues. Intestinal expression of P-gp may affect the oral bioavailability of drug molecules that are substrates for this transporter. Interaction with P-gp can be studied using direct assays of drug transport in polarized cell systems such as Caco-2 cell monolayers, and human P-gp cDNA-expressing LLC-PK1 and MDCK cell monolayers. Caco-2 cells (human adenocarcinoma colonic cell line Caco-2, ATCC Cat. No. […] The cells were cultured for 21-25 days with media replacement every 3-4 days. Monolayer integrity was evaluated by pre-experimental trans-epithelial electrical resistance (TEER) measurements and post-experimental lucifer yellow A to B flux determinations. […] Receiver solution was prepared by adding 1% DMSO to transport buffer. The test solution was of Compound A in DMSO in transport buffer at a final DMSO concentration of 1%. […] The donor and receiver solutions were added to the apical or basolateral chambers of the monolayers (depending on the direction of transport to be measured). The monolayers were incubated on an orbital shaker (50 rpm) at 37° C., with ambient humidity and CO2. After 90 minutes, samples from the donor and receiver chambers were removed for analysis. […] Duplicate monolayers were used for each incubation. Samples were analyzed by LC/MS/MS using peak area ratios to an internal standard. Test article concentrations were calculated based on the peak area ratios obtained for appropriate dilutions of the donor solution containing the test article at the nominal concentration in transport buffer. Samples were diluted as appropriate to ensure that the response was within the linear range of the mass spec detector. Comparator and control samples were analyzed by liquid scintillation counting. Lucifer yellow concentrations were determined using a fluorescence plate reader.

Caco-2 cell monolayers = experiment: Caco-2 monolayer bidirectional permeability; assay type: in vitro ADME, human; settings: human, Caco-2, 90 min, 1 μM, pH 7.4
Procedure: as §2

SMILES: C[C@H](Cc1ccc(OCCCN2CCCCC2)c(OCCCN2CCCCC2)c1)[C@@H](C)Cc1ccc(OCCCN2CCCCC2)c(OCCCN2CCCCC2)c1 [Compound A, 1,4-bis{3,4-bis[3-(piperidin-1-yl)propoxy]phenyl}-2,3-dimethyl-(2R,3S)-butane]
- Mean Growth Percent at 10 μM (Colon Cancer cell lines): −94.08%
- Mean Growth Percent at 10 μM (Breast Cancer cell lines): −67.95%
- Mean Growth Percent at 10 μM (Renal Cancer cell lines): −95.54%
- Mean Growth Percent at 10 μM (Melanoma cell lines): −92.38%
- Mean Growth Percent at 10 μM (CNS cell lines): −93.97%
- Papp A→B at 90 min, 1 μM ([1]; Caco-2, pH 7.4, BCS permeability class): 0.514 to 14.2 ×10⁻⁶ cm/s
- Papp A→B at 90 min, 1 μM ([1]; Caco-2, pH 7.4, Papp A to B): 9.75 ×10⁻⁶ cm/s
- Papp B→A at 90 min, 1 μM ([1]; Caco-2, pH 7.4, Papp B to A): 1.74 ×10⁻⁶ cm/s
- efflux ratio at 90 min, 1 μM ([1]; Caco-2, pH 7.4, Polarization Ratio [B-A/A-B]): 0.1 to 0.2
- Papp A to B (Caco-2 cell monolayers): 9.61 ×10⁻⁶ cm/s
- Papp B to A (Caco-2 cell monolayers): 1.72 ×10⁻⁶ cm/s
- Polarization Ratio [B-A/A-B] (Caco-2 cell monolayers): 0.18

Reference: patent US20150374709A1, “TETRA-SUBSTITUTED NDGA DERIVATIVES VIA ETHER BONDS AND CARBAMATE BONDS AND THEIR SYNTHESIS AND PHARMACEUTICAL USE” (ERIMOS PHARMACEUTICALS LLC, priority 2006, published 2015)
